Measurements: patent US20250345318A1, “COMPOUND AND USE THEREOF IN PREVENTING OR TREATING RADIATION DAMAGE” (SIMCERE PHARMACEUTICAL CO., LTD., priority 2022, published 2025)

Columns and labels:
C57BL/6 male mice [1] = test: Small intestine epithelial injury after abdominal X-ray irradiation at 3 or 6 Gy (Example 8); type: in vivo; details: for small intestine villus length: 4 days after
Description: CS7BL/6 male mice (24.8±1.6 g in body weight) aged 10 weeks were divided into 5 groups of 6 mice each. JAC4 (100 mg/kg) or an equal volume of vehicle (polyethylene glycol:ethanol:physiological saline=47.5:7.5:50, v/v/v) was orally administered to the mice once daily for 7 consecutive days. After that, the mice were subjected to abdominal X-ray irradiation at different doses (3 or 6 Gy) and JAC4 or vehicle treatment was continued. After 4 days, the small intestine tissues were collected for HE staining and inspection, the small intestine villus length and the ileum crypt height in all groups were measured and statistically analyzed, and the small intestine was histopathologically scored. The specific procedures are as follows: 3 mice were randomly selected from each group for statistical analysis of their small intestine tissue HE staining images, and for each mouse, 6 fields of view were randomly selected for inspection (*** p<0.001).

SPCA-1 cells [2] = test: Subcutaneous SPCA-1 lung cancer xenograft model with X-ray radiation therapy (Example 20); type: in vivo; details: for tumor inhibition rate: day 13, vs control group
Description: SPCA-1 cells in the logarithmic growth phase were subcutaneously injected into male BALB/C nude mice aged 4-5 weeks at 5×10^6 cells/100 μL […]. When the tumor volume reached 60-100 mm^3 (tumor volume=length×width^2/2), the mice were randomized into a vehicle control group, a 100 mg/kg JAC4 group (daily treatment), a 3 Gy×5 X-ray radiation group (5 consecutive days of radiation), and a 100 mg/kg JAC4+3 Gy×5 X-ray radiation group, each containing 6 mice. The formulation of the vehicle for JAC4 was polyethylene glycol:ethanol:physiological saline=40:7.5:52.5, v/v/v. The vehicle group and the treatment groups were given the vehicle or the treatment at the same volume by the same route, respectively. The mice were kept anesthetized by isoflurane through a mask in a supine posture. The irradiation range was adjusted to the tumor and the whole lung with a width of about 2 cm through the width indicating lamp and the beam limiting device of the system. The chamber was closed, and the irradiation time was set to about 126 s according to the dose rate to enable the total dose to reach 3 Gy. The irradiator was turned on for the irradiation. 100 mg/kg JAC4 was administered intragastrically daily. The body weight and tumor volume were measured daily and the modeling was terminated on day 13 post-dose.
After the modeling was finished, the tumor tissue was subjected to HE staining according to the following specific procedures: 3 mice were randomly selected to provide the tumor tissue for HE staining in each group, and 6 fields of view were randomly selected for inspection.

SPCA-1 cells [3] = test: γ-H2AX foci and Western blot (DSBs), SPCA-1 (Example 22); type: cell-based, human
Description: (§1) To investigate the effect of JAC4 in combination with X-ray on DSBs in SPCA-1 and BEAS-2B cells, SPCA-1 and BEAS-2B cells were pretreated with 10 μM JAC4 for 24 h and 4 Gy X-ray for 2 h, and then subjected to γ-H2AX fluorescent labeling and Western immunoblot (see Example 4 for detailed procedures).

C57BL/6 male mice [4] = test: Survival of mice receiving total body X-ray irradiation (Example 1); type: in vivo
Description: C57BL/6 male mice (24.8±1.6 g in body weight) aged 10 weeks were divided into two groups of 11 mice each. After acclimating to the environment, JAC4 (100 mg/kg) or an equal volume of vehicle (polyethylene glycol:ethanol:physiological saline=47.5:7.5:50, v/v/v) was orally administered to the mice once daily for 7 consecutive days. After that, the mice were subjected to total body X-ray irradiation (6.5 Gy) and JAC4 or vehicle treatment was continued. After 3 days, the administration of JAC4 or vehicle was discontinued. The status was observed daily and the body weights of the mice were recorded.

lung tissue = test: Inflammation level in lung tissue of xenograft mice (RT-PCR, HE) (Example 21); type: in vivo
Description: After the modeling in Example 20 was completed, the inflammation level and DNA damage in the lung tissue were detected by the following specific procedures: 3 mice were randomly selected from each group to provide the lung tissue. About 20-30 mg of lung tissue was collected from each mouse in a centrifuge tube. The total RNA was isolated and extracted using the TRIzol reagent (Invitrogen) for RT-PCR (Reverse Transcription-Polymerase Chain Reaction) detection. The RNA was reversely transcribed into cDNA using a reverse transcription kit from Vazyme. Reaction system: 42° C., 2 min; 37° C., 15 min; 85° C., 5 s. The samples were preserved in a refrigerator at […] or −80° C. for later use. 30-35 PCR amplification cycles were performed. The data were analyzed by the ΔΔCt method using glyceraldehyde-3-phosphate dehydrogenase (GAPDH) as an internal standard and the AceQ qPCR SYBR Green Master Mix fluorescent quantitative PCR reagent from Vazyme on the 7900HT high throughput flash real-time fluorescent quantitative PCR system from Thermo Fisher Scientific for PCR assay. The results are shown in FIG. 29, with the following specific conditions: […]

BEAS-2B cells = test: γ-H2AX foci and Western blot (DSBs), BEAS-2B (Example 22); type: cell-based, human
Description: as §1

SPCA-1 cells [5] = test: Intracellular ROS (DCFH-DA), SPCA-1 (Example 22); type: cell-based, human
From the text: The large amount of reactive oxygen species (ROS) induced by X-ray and the sustained oxidative stress reaction may cause DNA damage. Superoxide dismutase (SOD) and catalase (CAT) exert antioxidant effects, and the lipid oxidation product malondialdehyde (MDA) and ROS can reflect the oxidative stress level in vivo. The intracellular ROS level was detected using the fluorescent probe DCFH-DA. […] The supernatant of BEAS-2B cells was extracted and subjected to an MDA assay and an activity assay for CAT and SOD.

[6] = JAC4 100 mg/kg oral + abdominal X-ray 3 Gy
[7] = JAC4 100 mg/kg oral + abdominal X-ray 6 Gy
[8] = SPCA-1, 10 μM JAC4 + 4 Gy X-ray vs X-ray monotherapy
[9] = JAC4+X-ray group relative to X-ray group

c1ccc(CSc2nnc(C3COc4ccccc4O3)o2)nc1 (centres unmarked) [JAC4]
ileum crypt height (C57BL/6 male mice [1]; [6]): 62.06±3.26 μm
small intestine histopathological score (C57BL/6 male mice [1]; [6]): 1.50±0.55
small intestine villus length (C57BL/6 male mice [1]; [6]): 278.19±25.21 μm
ileum crypt height (C57BL/6 male mice [1]; [7]): 57.32±4.43 μm
small intestine histopathological score (C57BL/6 male mice [1]; [7]): 4.17±0.98
small intestine villus length (C57BL/6 male mice [1]; [7]): 278.25±23.79 μm
tumor inhibition rate (SPCA-1 cells [2]; 100 mg/kg JAC4 + 3 Gy×5 X-ray combination therapy): 78.05%
tumor inhibition rate (SPCA-1 cells [2]; 100 mg/kg JAC4 intragastric daily, monotherapy): 25.45%
tumor volume (SPCA-1 cells [2]; 100 mg/kg JAC4 monotherapy): significantly smaller than the control group
tumor-to-body weight ratio (SPCA-1 cells [2]; JAC4 + X-ray combination vs X-ray monotherapy group): significantly reduced
H&E staining of tumor tissues (SPCA-1 cells [2]; JAC4 in combination with X-ray): promotes the necrosis of tumor tissues
death (SPCA-1 cells [2]; all groups, JAC4 100 mg/kg with or without X-ray): no death occurred
body weight (SPCA-1 cells [2]; among all groups, JAC4 100 mg/kg with or without X-ray): no significant changes
γ-H2AX foci (SPCA-1 cells [3]; SPCA-1, 10 μM JAC4 24 h + 4 Gy X-ray 2 h vs X-ray monotherapy): increase
JWA expression level (Western blot) (SPCA-1 cells [3]; [8]): increased
γ-H2AX expression level (Western blot) (SPCA-1 cells [3]; [8]): increased
mean survival after radiation (C57BL/6 male mice [4]; JAC4 100 mg/kg oral once daily, 7 days before to 3 days after total body X-ray 6.5 Gy, observation day 30): 17.9 ± 8.4 days
number of mice died (C57BL/6 male mice [4]; JAC4 100 mg/kg oral, TBI 6.5 Gy, 11 mice per group): 6 mice
number of mice survived (C57BL/6 male mice [4]; JAC4 100 mg/kg oral, TBI 6.5 Gy, 11 mice per group, vehicle group all dead on day 12): 5 mice
weight loss after radiation (C57BL/6 male mice [4]; JAC4 100 mg/kg oral, TBI 6.5 Gy, vs vehicle): slower
mRNA level of anti-inflammatory factor IL-10 in lung tissue (lung tissue; [9]): 2.91 folds
mRNA level of proinflammatory factor IL-1P in lung tissue (lung tissue; [9]): 0.43 folds
mRNA level of proinflammatory factor TGF-β1 in lung tissue (lung tissue; [9]): 0.71 folds
mRNA level of proinflammatory factor TNF-α in lung tissue (lung tissue; [9]): 0.63 folds
HE staining of lung tissues (lung tissue; JAC4 treatment in combination with X-ray therapy): reduced inflammatory cell infiltration
formation of γ-H2AX foci (BEAS-2B cells; 10 μM JAC4 24 h + 4 Gy X-ray 2 h vs X-ray treatment group): significantly reduced
JWA expression level (Western blot) (BEAS-2B cells; 10 μM JAC4 + 4 Gy X-ray): increased
γ-H2AX protein expression level (Western blot) (BEAS-2B cells; 10 μM JAC4 + 4 Gy X-ray): decreased
ROS level (SPCA-1 cells [5]): no significant effect
